Source: ChEMBL document CHEMBL2331503, “Hx-amides: DNA sequence recognition by the fluorescent Hx (p-anisylbenzimidazole)•pyrrole and Hx•imidazole pairings” (Bioorg Med Chem Lett, 2013)
The source made the active and inactive calls. The calls are words filed in the database; no cut-off is given here.

Tests used:
[1] = Binding affinity to 5'-ACGCGT DNA assessed as change in melting temperature at 3 mol equivalent of compound-DNA
[2] = Binding affinity to 5'-ATGCAT DNA by surface plasmon resonance assay
[3] = Binding affinity to 5'-AGCGCT DNA by surface plasmon resonance assay
[4] = Inhibition of 5'-ACCGGT cognate sequence containing 5'-32P labeled 131 base pair DNA (unknown origin) cleavage at 10 to 30 uM DNase I footprinting method
[5] = Binding affinity to cognate sequence of 5'-ACCGGT DNA at 1 mol equivalent by circular dichroism analysis
[6] = Binding affinity to cognate sequence of 5'-ACCGGT DNA by surface plasmon resonance assay
[7] = Binding affinity to 5'-AAATTT DNA assessed as change in melting temperature at 3 mol equivalent of compound-DNA
[8] = Binding affinity to 5'-ACCGGT DNA assessed as change in melting temperature at 3 mol equivalent of compound-DNA

- ΔTm [1]: 0 °C
- K [2]: 1 ×10⁶ /M
- K [3]: 5 ×10⁵ /M
- inhibition [4]: Active
- Activity [5]: Active
- K [6]: 2 ×10⁶ /M
- ΔTm [7]: 5 °C
- ΔTm [8]: 5 °C
Structure (SMILES): COc1ccc(-c2nc3ccc(C(=O)Nc4cn(C)c(C(=O)Nc5cn(C)c(C(=O)NCCN(C)C)n5)n4)cc3[nH]2)cc1
